Laboratory results from BigSolDB 2.1.

Q: What does the source list for O=C(NCCO[N+](=O)[O-])c1cccnc1?
A: solubility (mole fraction) (in DMF, 278.15 K): 0.0135; solubility (mole fraction) (in DMF, 283.15 K): 0.0146; solubility (mole fraction) (in DMF, 288.15 K): 0.0156; solubility (mole fraction) (in DMF, 293.15 K): 0.0168; solubility (mole fraction) (in DMF, 298.15 K): 0.0179; solubility (mole fraction) (in DMF, 303.15 K): 0.0191; solubility (mole fraction) (in DMF, 308.15 K): 0.0202; solubility (mole fraction) (in DMF, 313.15 K): 0.0213; solubility (mole fraction) (in DMF, 318.15 K): 0.0225; solubility (mole fraction) (in DMF, 323.15 K): 0.024; solubility (mole fraction) (in ethanol, 278.15 K): 0.00153; solubility (mole fraction) (in ethanol, 283.15 K): 0.00167; solubility (mole fraction) (in ethanol, 288.15 K): 0.00181; solubility (mole fraction) (in ethanol, 293.15 K): 0.00195; solubility (mole fraction) (in ethanol, 298.15 K): 0.00208; solubility (mole fraction) (in ethanol, 303.15 K): 0.00222; solubility (mole fraction) (in ethanol, 308.15 K): 0.00236; solubility (mole fraction) (in ethanol, 313.15 K): 0.0025; solubility (mole fraction) (in ethanol, 318.15 K): 0.00264; solubility (mole fraction) (in ethanol, 323.15 K): 0.00281; solubility (mole fraction) (in isopropanol, 278.15 K): 0.0011; solubility (mole fraction) (in isopropanol, 283.15 K): 0.00119; solubility (mole fraction) (in isopropanol, 288.15 K): 0.00129; solubility (mole fraction) (in isopropanol, 293.15 K): 0.00139; solubility (mole fraction) (in isopropanol, 298.15 K): 0.00149; solubility (mole fraction) (in isopropanol, 303.15 K): 0.00159; solubility (mole fraction) (in isopropanol, 308.15 K): 0.00169; solubility (mole fraction) (in isopropanol, 313.15 K): 0.00178; solubility (mole fraction) (in isopropanol, 318.15 K): 0.00188; solubility (mole fraction) (in isopropanol, 323.15 K): 0.002; solubility (mole fraction) (in methanol, 278.15 K): 0.0017; solubility (mole fraction) (in methanol, 283.15 K): 0.00182; solubility (mole fraction) (in methanol, 288.15 K): 0.00195; solubility (mole fraction) (in methanol, 293.15 K): 0.00211; solubility (mole fraction) (in methanol, 298.15 K): 0.00226; solubility (mole fraction) (in methanol, 303.15 K): 0.0024; solubility (mole fraction) (in methanol, 308.15 K): 0.00256; solubility (mole fraction) (in methanol, 313.15 K): 0.00271; solubility (mole fraction) (in methanol, 318.15 K): 0.00286; solubility (mole fraction) (in methanol, 323.15 K): 0.00306; solubility (mole fraction) (in water, 278.15 K): 0.000204; solubility (mole fraction) (in water, 283.15 K): 0.000222; solubility (mole fraction) (in water, 288.15 K): 0.00024; solubility (mole fraction) (in water, 293.15 K): 0.000257; solubility (mole fraction) (in water, 298.15 K): 0.000275; solubility (mole fraction) (in water, 303.15 K): 0.000291; solubility (mole fraction) (in water, 308.15 K): 0.000307; solubility (mole fraction) (in water, 313.15 K): 0.000325; solubility (mole fraction) (in water, 318.15 K): 0.000346; solubility (mole fraction) (in water, 323.15 K): 0.000367
